Data reported in EP0773287A1, “Immortalised embryonic hyppocampal cells and their use” (BAYER AG, priority 1995, dated 1997).
Where two headings read alike, the source gives them in different places.

Key:
Format in all cases: cell-based, murine
HNMMCV11.2.0 = assay: Ca2+-imaging (Fura-2) of intracellular calcium after application of agonists; conditions: HNMMCV11.2.0
Description: (§1) Fluorescent Probe: Dynamic changes of intracellular calcium concentration were measured using the Fura-2 fluorescent probe (Roe et al. 1990, Cell Calcium 11:63-73). This fluorescent dye was chosen because of its selectivity, high quantum yield and extinction co-efficient. Fura-2 permeates the living cell as a acetoxymethylester and becomes trapped within the cell after hydrolysis by intracellular esterases. The calcium-sensitive free acid of Fura-2 is able to bind to calcium ions inside the cell. Fura-2 has an excitation maximum at 380 nm and the Fura2/calcium complex peaks at 340 nm. A change in intracellular calcium concentration was calculated by recording fluorescent video images at wavelengths of 340nm and 380nm excitation and 510nm emission and by dividing the grey values of the digitized video images of 380nm from 340nm.
(§2) Loading cells with Fura-2: A stock solution with 2mM Fura-2-acetoxymethylester in dimethylsulfoxide (DMSO) was diluted to 5-10 µM with serum free Minimal Essential Medium (MEM, Gibco) containing 1.5% bovine serum albumin and 5 mM calcium chloride. The cells were incubated in a Falcon 96 well plate for 45-60 minutes at 37°C. Subsequently the cells were washed twice in N-(2-Hydroxyethyl)piperazine-N'-(2-ethanesulfonic acid) (HEPES, 5mM) buffered Tyrode solution (HEPES buffered salt solution containing 130 mM NaCl, 5 mM KCl, 2 mM CaCl2, 1 mM MgCl2, 5mM NaHCO3, 11 mM Glucose).
(§3) Imaging procedure: 100 µl of Tyrode buffer was added to the plate wells and the cells were sequencially exposed to light at 340 nm and 380 nm under a fluorescent microscope (Nikon Diaphot). The exposition time was 100 ms. A series of video images at 3 second intervals was acquired and stored as digitised pictures in the image boards of an image analysis computer (Leica, Quantimet 570). After the acquisition of 8 images the test substances were applied. The grey levels of the cells, which correspond to the fluorescence intensity, were measured in the recorded video images. The ratio was determined by dividing the measured grey levels of the "380 nm images" by the grey levels of the "340 nm images" either from averaged images or from individual cells. For averaged results, the grey levels were measured over the whole images.
(§4) The cells were loaded with Fura 2/AM between day 3 and 7 in culture. A number of agonists were tested for their ability to activate specific receptors on the cell surface which lead to a rise in intracellular calcium. The rise in calcium concentration in the cytoplasm can occur after activation of specific calcium channels in the cell membrane, after activation of neurotransmitter receptors directly coupled to ion channels that are permeable to calcium ions (i.e. NMDA or AMPA type glutamate receptors), or by activation of receptors, which propagate the signal through the activation of specific G-proteins, which regulate the activity of different enzymes in the interior of the cell (Connor, Cell Calcium 14 (1993), 185-200; Crouch and Hendry, Medical Res. Rev. 13 (1993), 105-123). The activation of phospholipase C generates the second messengers diacylglycerol and inositoltriphosphate from phospholipids in the cell membrane. The binding of inositoltriphosphate to receptors localised on internal vesicles which store calcium ions leads to a transient rise in the concentration of calcium ions in the cytoplasm (Berridge, M.J. 1993, Nature 361: 315-325).

HC e/n XV.B cells = assay: as above
Description: as §1, §2, §3, §4

HNMMCV13.1.F = assay: as above; conditions: for rise in intracellular calcium concentration (result in words): HNMMCV13.1.F, concentrations (glutamate 10µM to 10 mM; AMPA, kainic acid, serotonine, dopamine, carbachol up to 1mM; NMDA up to 500µM)
Description: as §1, §2, §3, §4

HNMMCV13.1.E = assay: as above; conditions: HNMMCV13.1.E
Description: as §1, §2, §3, §4

HNMMCV14.1.A = assay: as above; conditions: HNMMCV14.1.A
Description: as §1, §2, §3, §4

HC e/n XVB cells = assay: Whole-cell patch-clamp recording of ligand-activated currents; conditions: for ligand-activated currents (electrophysiological recordings): XV. B/ - EGF, membrane potential clamped to -70mV
Description: Electrophysiological setup: Membrane currents were measured with the patchclamp technique in the whole-cell recording configuration (Hamill et al. 1981, Pfluegers Arch. 391:85-100). Current signals were amplified with conventional electronics (EPC-9 amplifier, HEKA Elektronik GmbH, Lambrecht, Germany), filtered at 10kHz, and sampled at 5 kHz by an interface connected to an IBM AT-compatible computer system, which also served as a stimulus generator.
Solutions and electrodes: The standard bathing solution contained (in mM): Nacl 150, KCL 5, MgCl2 1.8, HEPES 5, and glucose 10. In some experiments an equimolar amount of NaCl was replaced by 5mM BaCl2. Recording pipettes had resistances about 5MΩ (Hilgenberg, Malsfeld, Germany). The pipettes contained (in mM): KCL 140, CaCl2 0.5, EGTA 5, MgCl2 2, and HEPES 10. The pH was adjusted to 7.4. In some experiments the pipette solution was designed to minimize the contribution of voltage-activated currents. In this case, investigating the ligand-activated currents, the pipette solution contained (in mM): CsCl 140, EGTA 10, and HEPES 10.
Ligands were dissolved in the extracellular saline solution and applied via an U-tube application system. To record ligand-induced currents, the membrane potential was clamped to -70mV. For measurements of voltage-activated currents, cells were held at -70mV and every second the membrane was stepped through a 50 msec. de- or hyperpolarising test pulse to a potential between -170 and +20 mV.

[1] = test system: metabotropic glutamate receptor(s) (mGluR) expressed by HNMMCV14.1A cells; assay: Phosphoinositide hydrolysis: accumulation of 3H-inositol phosphates; conditions: for EC50: read-out: EC50 inositolphosphate accumulation
Description: Phosphoinositide hydrolysis was determined by measuring the accumulation of ^3H-inositol phosphates. The cells were plated in 48-well plates (Costar) at a density of 10000 cells per well and incubated for 4-5 days at 37°C, 7% CO2. Then the cells were labeled by incubation with 4 µCi of myo-2-^3H-inositol per ml medium (specific activity: […]: Amersham). After 24 h LiCl (10 mM final concentration) was added to the cells for 1 h. Agonists were then added at the concentrations indicated. The incubation was stopped after 1 h by replacing the medium with 200 µl ice-cold methanol. 400 µl of destilled water was added and the sample was directly applied to AG-1X8 ion exchange columns (AG-1X8 resin: BioRad). Free inositol and glycerophosphoryl-inositol were washed away with 16 ml destilled water followed by 10 ml 5 mM disodium-tetraborate, 60 mM sodium formate. Total ^3H-inositol phosphates (IP1, IP2, IP3) were eluted with 7 ml of 100 mM formic acid, 1 M ammonium formate. Radioactivity of the eluted ^3H-inositol phosphates was determined by liquid scintillation counting after addition of 13 ml liquid scintillation cocktail (Ultima Gold: Canberra Packard). Measurements were performed in triplicates for each experimental point. Untreated controls were set as 100% and the other values calculated in relation to this.
The columns were prepared as follows: 1 ml pipet tips were filled with one glass bead (Roth) per tip before adding 500 µl AG-1X8 resin. The resin was compressed with air and 270 µl seasand was applied. Until use they were stored at 4°C.

[2] = HC e/n XV.B cells, state of differentiation not stated, up to 1mM
[3] = HNMMCV14.1A cells, agonist 1 h, LiCl 10 mM
[4] = differentiated HC e/n XV.B cells

Molecule: Cc1onc(O)c1CC(N)C(=O)O (centres unmarked) [AMPA, ∝-amino-3-hydroxy-5-methyl-4-isoxazol-propionic acid]
- rise in intracellular calcium concentration (result in words) (HNMMCV11.2.0): did not result in a transient rise
- rise in intracellular calcium concentration (result in words) (HC e/n XV.B cells; undifferentiated HC e/n XV.B cells): did not result in a transient rise
- rise in intracellular calcium concentration (result in words) (HNMMCV13.1.F): did not result in a transient rise
- rise in intracellular calcium concentration (result in words) (HNMMCV13.1.E): did not result in a transient rise
- rise in intracellular calcium concentration (result in words) (HNMMCV14.1.A): did not result in a transient rise
- ligand-activated currents (electrophysiological recordings) (HC e/n XVB cells): + (+: 10-30% positive cells)
- ligand-induced inward currents (result in words) (HC e/n XVB cells; differentiated HC e/n XVB cells, AMPA 100µM, NMDA 1mM, kainate 1mM, glutamate 1mM): evoked responses

Molecule: N#Cc1cc2[nH]c(=O)c(=O)[nH]c2cc1[N+](=O)[O-] [CNQX, 6-nitro-7-cyanochinoxalin-2,3-dione]
- antagonism of the calcium signals recorded after application of glutamate (HNMMCV13.1.F; glutamate 100µM, CNQX 100µM, cells not given, Table 5 gives 13.1.F): not antagonised

Molecule: C[N+](C)(C)CCOC(N)=O [Carbachol]
- rise in intracellular calcium concentration (result in words) (HC e/n XV.B cells; [2]): reproducible signal

Molecule: NCCc1ccc(O)c(O)c1 [Dopamine, dopamine]
- rise in intracellular calcium concentration (result in words) (HNMMCV11.2.0): did not lead to a specific signal
- rise in intracellular calcium concentration (result in words) (HC e/n XV.B cells; [2]): did not lead to a specific signal
- rise in intracellular calcium concentration (result in words) (HNMMCV13.1.F): did not lead to a specific signal
- rise in intracellular calcium concentration (result in words) (HNMMCV13.1.E): did not lead to a specific signal
- rise in intracellular calcium concentration (result in words) (HNMMCV14.1.A): did not lead to a specific signal

Molecule: CN[C@H](CC(=O)O)C(=O)O [NMDA, N-methyl-D-aspartate]
- ligand-activated currents (electrophysiological recordings) (HC e/n XVB cells): ++ (++: 30-70% positive cells)

Molecule: N[C@@H](Cn1oc(=O)[nH]c1=O)C(=O)O [Quisqualate, quisqualate]
- effect on inositolphosphate accumulation (result in words) ([1]; HNMMCV14.1A cells): concentration dependent increase
- maximum response of inositolphosphate accumulation compared with glutamate ([1]; HNMMCV14.1A cells): slightly weaker
- EC50 [1, 3]: 0.02 µM

Molecule: NCCc1c[nH]c2ccc(O)cc12 [Serotonine]
- rise in intracellular calcium concentration (result in words) (HNMMCV11.2.0): did not lead to a specific signal
- rise in intracellular calcium concentration (result in words) (HC e/n XV.B cells; [2]): did not lead to a specific signal
- rise in intracellular calcium concentration (result in words) (HNMMCV13.1.F): did not lead to a specific signal
- rise in intracellular calcium concentration (result in words) (HNMMCV13.1.E): did not lead to a specific signal
- rise in intracellular calcium concentration (result in words) (HNMMCV14.1.A): did not lead to a specific signal

Molecule: CN1CCc2cc3c(cc2[C@H]1[C@@H]1OC(=O)c2c1ccc1c2OCO1)OCO3 [bicuculline]
- effect on the GABA-response (HC e/n XVB cells): blocked

Molecule: NC(C(=O)O)c1cc(O)no1 (centres unmarked) [ibotenate]
- effect on inositolphosphate accumulation (result in words) [1]: concentration dependent increase
- maximum response of inositolphosphate accumulation compared with glutamate [1]: slightly weaker
- EC50 [1]: 5 µM

Molecule: NCc1cc(=O)[nH]o1 [muscimol]
- effect on the GABA-response (HC e/n XVB cells; HC e/n XVB cells): mimicked

Molecule: N[C@@]1(C(=O)O)CC[C@@H](C(=O)O)C1 [t-ACPD, 1S3R-aminocyclopentane-1,3-dicarboxylate]
- effect on inositolphosphate accumulation (result in words) ([1]; HNMMCV14.1A cells): concentration dependent increase
- maximum response of inositolphosphate accumulation compared with glutamate ([1]; HNMMCV14.1A cells): slightly weaker
- EC50 [1, 3]: 20 µM
- rise in intracellular calcium concentration (result in words) (HNMMCV11.2.0): strong
- rise in intracellular calcium concentration (result in words) (HC e/n XV.B cells; [4]): weak signals
- rise in intracellular calcium concentration (result in words) (HNMMCV13.1.F): strong
- rise in intracellular calcium concentration (result in words) (HNMMCV13.1.E): strong
- rise in intracellular calcium concentration (result in words) (HNMMCV14.1.A): strong

Molecule: L-carboxycyclopropylglycin [L-CCG 1]
- rise in intracellular calcium concentration (result in words) (HNMMCV11.2.0): strong
- rise in intracellular calcium concentration (result in words) (HC e/n XV.B cells; [4]): weak signals
- rise in intracellular calcium concentration (result in words) (HNMMCV13.1.F): strong
- rise in intracellular calcium concentration (result in words) (HNMMCV13.1.E): strong
- rise in intracellular calcium concentration (result in words) (HNMMCV14.1.A): strong
